In test [1] the target is isolated recombinant JAK1 kinase domain (Homo sapiens (Human), UniProt P23458). The test is described as follows: JAK1 enzyme assay (Caliper LabChip, peptide phosphorylation). In kind it is biochemical. Particulars: isolated recombinant JAK1 kinase domain, 25 μM ATP.
Test [2] relates to JAK1-dependent STAT6 phosphorylation downstream of IL-13 stimulation in BEAS-2B human bronchial epithelial cells. The test is described as follows: JAK1 pathway assay in BEAS-2B cells (IL-13-pSTAT6, MSD). In kind it is cell-based. Particulars: read-out: IL13-pSTAT6 EC50 (uM)_BEAS-2B. As for the experimental part: JAK1 Pathway Assay in Cell Lines was Carried Out as Follows:
Inhibitor potency (EC50) was determined in cell-based assays designed to measure JAK1 dependent STAT phosphorylation.
In one assay approach, TF-1 human erythroleukemia cells obtained from the American Type Culture Collection (ATCC; Manassas, Va.) were used to measure JAK1-dependent STAT6 phosphorylation downstream of IL-13 stimulation. Prior to use in the assays, TF-1 cells were starved of GM-CSF overnight in OptiMEM medium (Life Technologies, Grand Island, N.Y.) supplemented with 0.5% charcoal/dextran stripped fetal bovine serum (FBS), 0.1 mM non-essential amino acids (NEAA), and 1 mM sodium pyruvate. The assays were run in 384-well plates in serum-free OptiMEM medium using 300,000 cells per well. In a second assay approach, BEAS-2B human bronchial epithelial cells obtained from ATCC were plated at 100,000 cells per well of a 96-well plate one day prior to the experiment. The BEAS-2B assay was run in complete growth medium (bronchial epithelial basal medium plus bulletkit; Lonza; Basel, Switzerland).
Test compounds were serially diluted 1:2 in DMSO and then diluted 1:50 in medium just before use. Diluted compounds were added to the cells, for a final DMSO concentration of 0.2%, and incubated for 30 min (for the TF-1 assay) or 1 hr (for the BEAS-2B assay) at 37° C. Then, cells were stimulated with human recombinant cytokine at their respective EC90 concentrations, as previously determined for each individual lot. Cells were stimulated with IL-13 (R&D Systems, Minneapolis, Minn.) for 15 min at 37° C. The TF-1 cell reactions were stopped by the direct addition of 10× lysis buffer (Cell Signaling Technologies, Danvers, Mass.), whereas the BEAS-2B cell incubations were halted by the removal of medium and addition of 1× lysis buffer. The resultant samples were frozen in the plates at −80° C. Compound mediated inhibition of STAT6 phosphorylation was measured in the cell lysates using MesoScale Discovery (MSD) technology (Gaithersburg, Md.).

isolated recombinant JAK1 kinase domain, sequence (P23458 875-1153): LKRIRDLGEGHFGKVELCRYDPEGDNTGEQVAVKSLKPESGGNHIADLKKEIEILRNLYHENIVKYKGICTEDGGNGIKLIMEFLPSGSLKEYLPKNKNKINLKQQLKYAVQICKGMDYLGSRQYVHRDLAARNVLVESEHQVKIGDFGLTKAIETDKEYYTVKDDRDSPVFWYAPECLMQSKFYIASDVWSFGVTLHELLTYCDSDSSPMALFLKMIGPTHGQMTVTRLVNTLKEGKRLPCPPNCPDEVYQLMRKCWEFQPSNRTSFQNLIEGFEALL

For `COC(=O)CCN1CCN(C(=O)Cn2cc(NC(=O)c3cnn4cccnc34)c(-c3cc(Cl)ccc3OC(F)F)n2)CC1` [Example 331, methyl 3-[4-(2-[3-[5-chloro-2-(difluoromethoxy)phenyl]-4-[pyrazolo[1,5-a]pyrimidine-3-amido]-1H-pyrazol-1-yl]acetyl)piperazin-1-yl]propanoate], in test [1], the Ki is 0.39 nM. Besides, the EC50 in test [2] was found to be 0.0176 µM.
As to `CCOC(=O)CCN1CCN(C(=O)Cn2cc(NC(=O)c3cnn4cccnc34)c(-c3cc(Cl)ccc3OC(F)F)n2)CC1` [Example 332], the concentration giving a half-maximal response (EC50) in test [2] is 0.0692 µM.
For `O=C(O)CCN1CCN(C(=O)Cn2cc(NC(=O)c3cnn4cccnc34)c(-c3cc(Cl)ccc3OC(F)F)n2)CC1` [Example 353, 3-[4-(2-[3-[5-chloro-2-(difluoromethoxy)phenyl]-4-[pyrazolo[1,5-a]pyrimidine-3-amido]-1H-pyrazol-1-yl]acetyl)piperazin-1-yl]propanoic acid], in test [1], the Ki worked out at 0.32 nM. Further, the EC50 in test [2] worked out at 3.61 µM.
Consider `O=C(Nc1cn([C@@H]2CNCC[C@H]2O)nc1-c1cc(Cl)ccc1OC(F)F)c1cnn2cccnc12` [Example 360, N-[3-[5-chloro-2-(difluoromethoxy)phenyl]-1-[(3R,4R)-4-hydroxypiperidin-3-yl]-1H-pyrazol-4-yl]pyrazolo[1,5-a]pyrimidine-3-carboxamide], for which, in test [2], the 50% effective concentration (EC50) came out at 0.0366 µM.
As for `O=C(Nc1cn([C@H]2CNCC[C@@H]2O)nc1-c1cc(Cl)ccc1OC(F)F)c1cnn2cccnc12` [Example 361, N-[3-[5-chloro-2-(difluoromethoxy)phenyl]-1-[(3S,4S)-4-hydroxypiperidin-3-yl]-1H-pyrazol-4-yl]pyrazolo[1,5-a]pyrimidine-3-carboxamide], the concentration giving a half-maximal response (EC50) in test [2] came out at 0.0273 µM.
On to `CCN[C@@H](C)Cn1cc(NC(=O)c2cnn3cccnc23)c(-c2cc(Cl)ccc2OC(F)F)n1` [Example 371, N-[3-[5-chloro-2-(difluoromethoxy)phenyl]-1-[(2S)-2-(ethylamino)propyl]-1H-pyrazol-4-yl]pyrazolo[1,5-a]pyrimidine-3-carboxamide], for which the EC50 in test [2] was 0.0146 µM.
`CN1CCN(C/C=C/Cn2cc(NC(=O)c3cnn4cccnc34)c(-c3cc(Cl)ccc3OC(F)F)n2)CC1` [Example 395, N-[3-[5-chloro-2-(difluoromethoxy)phenyl]-1-[(2E)-4-(4-methylpiperazin-1-yl)but-2-en-1-yl]-1H-pyrazol-4-yl]pyrazolo[1,5-a]pyrimidine-3-carboxamide]: the Ki in test [1] came to 1.29 nM. The EC50 in test [2] worked out at 0.0224 µM.
For `CSCCOC(=O)CNCCn1cc(NC(=O)c2cnn3cccnc23)c(-c2cc(Cl)ccc2OC(F)F)n1` [Example 396, 2-(methylthio)ethyl 2-(2-(3-(5-chloro-2-(difluoromethoxy)phenyl)-4-(pyrazolo[1,5-a]pyrimidine-3-carboxamido)-1H-pyrazol-1-yl)ethylamino)acetate], in test [1], the Ki was 3.29 nM. Besides, in test [2], the half-maximal effective concentration (EC50) stood at 0.0382 µM.
As for `CN(C)C(=O)CNC1CCN(C(=O)Cn2cc(NC(=O)c3cnn4cccnc34)c(-c3cc(Cl)ccc3OC(F)F)n2)CC1` [Example 401, N-(3-(5-chloro-2-(difluoromethoxy)phenyl)-1-(2-(4-(2-(dimethylamino)-2-oxoethylamino)piperidin-1-yl)-2-oxoethyl)-1H-pyrazol-4-yl)pyrazolo[1,5-a]pyrimidine-3-carboxamide], in test [1], the Ki was determined as 0.75 nM. Besides, in test [2], the EC50 was 0.152 µM.
Taken in the same sequence, the figures for `O=C(Nc1cn(CC(O)CN2CCOCC2)nc1-c1cc(Cl)ccc1OC(F)F)c1cnn2cccnc12` (centres unmarked) [Example 403, N-(3-(5-chloro-2-(difluoromethoxy)phenyl)-1-(2-hydroxy-3-morpholinopropyl)-1H-pyrazol-4-yl)pyrazolo[1,5-a]pyrimidine-3-carboxamide] were 1.46 nM and 0.0283 µM.
As for `O=C(CN1CCOCC1)Cn1cc(NC(=O)c2cnn3cccnc23)c(-c2cc(Cl)ccc2OC(F)F)n1` [Example 412, N-(3-(5-chloro-2-(difluoromethoxy)phenyl)-1-(3-morpholino-2-oxopropyl)-1H-pyrazol-4-yl)pyrazolo[1,5-a]pyrimidine-3-carboxamide], in test [1], the Ki turned out to be 1.7 nM. For the same compound, the EC50 in test [2] stood at 0.0395 µM.
Turning to `CN1CCN(C2CCN(C(=O)Cn3cc(NC(=O)c4cnn5cccnc45)c(-c4cc(Cl)ccc4OC(F)F)n3)CC2)CC1=O` [Example 416, N-(3-(5-chloro-2-(difluoromethoxy)phenyl)-1-(2-(4-(4-methyl-3-oxopiperazin-1-yl)piperidin-1-yl)-2-oxoethyl)-1H-pyrazol-4-yl)pyrazolo[1,5-a]pyrimidine-3-carboxamide], the inhibitory constant (Ki) in test [1] is 0.41 nM. In test [2], the EC50 is 0.0316 µM.
Consider `CNC(=O)[C@@H]1CCCN1CC1CCN(C(=O)Cn2cc(NC(=O)c3cnn4cccnc34)c(-c3cc(Cl)ccc3OC(F)F)n2)CC1` [Example 425, N-(3-(5-chloro-2-(difluoromethoxy)phenyl)-1-(2-(4-(((S)-2-(methyl-carbamoyl)pyrrolidin-1-yl)methyl)piperidin-1-yl)-2-oxoethyl)-1H-pyrazol-4-yl)pyrazolo[1,5-a]pyrimidine-3-carboxamide], for which the EC50 in test [2] stood at 0.0411 µM.
Consider `CN(C1CCN(C(=O)Cn2cc(NC(=O)c3cnn4cccnc34)c(-c3cc(Cl)ccc3OC(F)F)n2)CC1)[C@@H]1CCOC1` [Example 432, N-(3-(5-chloro-2-(difluoromethoxy)phenyl)-1-(2-(4-(methyl((R)-tetrahydrofuran-3-yl)amino)piperidin-1-yl)-2-oxoethyl)-1H-pyrazol-4-yl)pyrazolo[1,5-a]pyrimidine-3-carboxamide], for which, in test [1], the Ki was determined as 0.4 nM. In test [2], the EC50 worked out at 0.0326 µM.
Taken in the same sequence, the figures for `CN(CC1(C)OCCO1)C1CCN(C(=O)Cn2cc(NC(=O)c3cnn4cccnc34)c(-c3cc(Cl)ccc3OC(F)F)n2)CC1` [Example 438, N-(3-(5-chloro-2-(difluoromethoxy)phenyl)-1-(2-(4-(methyl((2-methyl-1,3-dioxolan-2-yl)methyl)amino)piperidin-1-yl)-2-oxoethyl)-1H-pyrazol-4-yl)pyrazolo[1,5-a]pyrimidine-3-carboxamide] were 0.59 nM and 0.015 µM.
Turning to `CN(C1CCN(C(=O)Cn2cc(NC(=O)c3cnn4cccnc34)c(-c3cc(Cl)ccc3OC(F)F)n2)CC1)[C@H]1CCOC1` [Example 442, N-(3-(5-chloro-2-(difluoromethoxy)phenyl)-1-(2-(4-(methyl((S)-tetrahydrofuran-3-yl)amino)piperidin-1-yl)-2-oxoethyl)-1H-pyrazol-4-yl)pyrazolo[1,5-a]pyrimidine-3-carboxamide], the Ki in test [1] came to 0.33 nM. Besides, in test [2], the EC50 is 0.0194 µM.
With `O=C(Nc1cn(CC(=O)N2CCC(N3CC[S+]([O-])CC3)CC2)nc1-c1cc(Cl)ccc1OC(F)F)c1cnn2cccnc12` [Example 443], the EC50 in test [2] was determined as 0.0663 µM.
Still for that read-out and setting: to `CN(CC1(C#N)CC1)C1CCN(C(=O)Cn2cc(NC(=O)c3cnn4cccnc34)c(-c3cc(Cl)ccc3OC(F)F)n2)CC1` [Example 467, N-(3-(5-chloro-2-(difluoromethoxy)phenyl)-1-(2-(4-(((1-cyanocyclopropyl)methyl) (methyl)amino)piperidin-1-yl)-2-oxoethyl)-1H-pyrazol-4-yl)pyrazolo[1,5-a]pyrimidine-3-carboxamide] belongs 0.0075 µM.

For orientation: Ki means the equilibrium dissociation constant of an inhibitor or competing ligand from its target. The term EC50 denotes the midpoint of the concentration-response curve.

For the origin of these results see patent US9346815B2, “5-chloro-2-difluoromethoxyphenyl pyrazolopyrimidine compounds, compositions and methods of use thereof” (Genentech, Inc., priority 2014, dated 2016).
